Test results: patent publication US11732240B2, “Direct conversion method of somatic cell into Hepatic stem cell, hepatic cell, or cholangiocyte” (UNIST(ULSAN NATIONAL INSTITUTE OF SCIENCE AND TECHNOLOGY), priority 2016, dated 2023)

Legend:
CYP related genes = assay: qRT-PCR of CYP related genes in induced hepatocytes after drug treatment; assay type: cell-based, mouse; settings: iHep; 25 mM 3-Mc, 1 uM Dex or 50 mM ethanol; 72 hrs; versus DMSO control
Experimental: Total RNA was extracted and cDNA was synthesized in the same method as Example 1. qRT-PCR was performed using synthesized cDNA. mRNA expression of specific genes was confirmed using SYBR Green I Master (Roche, 04887352001) and primers in LightCycler® 480 equipment. The average value was calculated for three analyzes and normalized using Gapdh (5′-[…]-3′ (SEQ ID NO: 94) and 5′-[…]-3′ (SEQ ID NO: 95)). The expression level of mRNA was compared using comparative Ct method. Primer sequences used in qRT-PCR were shown below (sequences below were represented in the 5′ to 3′ direction).
The CYP family members were known to be regulated by aryl hydrocarbon receptor (AhR), constitutive androstane receptor (CAR), pregnane X receptor (PXR), and nuclear receptor which were abundantly found in liver tissue. In order to confirm whether hepatocytes induce CYP when a stimulus was given to such receptors, chemical compounds such as 3-methylcholanthrene (3Mc) which acts on aryl hydrocarbon receptors (Cyp1 family members) and glucocorticoid (Dex, dexamethasone) which acts on glucocorticoid receptors (glucocorticoid receptor regulating CAR and PXR is upstream of Cyp2/3 family members) were treated to receptors.
Specifically, cells were cultured with 60% confluency in HEP medium in which dexamethasone was not added. […]

hepatocytes = settings: 50 mM EtOH for 48 hrs

SMILES | expression of CYP family genes (mRNA) (CYP related genes) | accumulation of fats and droplets in cytoplasm of hepatocytes (hepatocytes)
Cc1ccc2cc3c(ccc4ccccc43)c3c2c1CC3 [3-methylcholanthrene] | induced | –
CCO [ethanol] | – | accumulation of fats
